Test results as given in patent US20240376118A1, “BI-FUNCTIONAL COMPOUNDS AND METHODS FOR TARGETED UBIQUITINATION OF ANDROGEN RECEPTOR” (MONTELINO THERAPEUTICS, INC., priority 2021, published 2024).

System: 22Rv1-Enz^R human prostate cancer cell line
Assay: 22Rv1-Enz^R cell proliferation assay
Type: cell-based
Conditions: 22Rv1-Enz^R cells, 6-day culture, cell media changed every 24 hours, read-out: 22Rv1-Enz^R proliferation assay GIC50 (half maximal growth inhibition constant)
Procedure: The human prostate cancer cell line, 22Rv1 has been reported to express a high level of AR-V7. According to one procedure, 22Rv1 is seeded at 50,000 cells/well on a 24-well plate in quadruplicate and treated with test compounds in concentrations ranging up to 20 μM for four days. Standard culture media is RPMI-1640 supplemented with 10% fetal bovine serum. The test compound initially is dissolved in DMSO at 50 mM. This stock solution is then diluted as needed for the indicated concentrations. At the end of the four-day period, cells are harvested using 1% trypsin and counted using an automated cell counter.
Cell Culture. Human CaP cell lines, LNCaP, 22Rv1, VCaP, PC3, and DU145 are obtained from the American Type Culture Collection (ATCC) and maintained in the standard culture media: RPMI-1640 supplemented with 10% fetal bovine serum (FBS). LNCaP, 22Rv1, and VCaP are androgen-responsive cell lines, while PC3 and DU145 are not. To establish SAT resistant CaP cell lines, LNCaP, 22Rv1, and VCaP are treated continuously with 10-50 μM abiraterone, apalutamide, darolutamide, or enzalutamide. After 3-6 months, stable cell lines are established and designated as LNCaP-Abi^R, LNCaP-Apa^R, LNCaP-Daro^R, LNCaP-Enz^R, VCaP-Abi^R, VCaP-Apa^R, VCaP-Daro^R, VCaP-Enz^R, 22Rv1-Abi^R, 22Rv1-Apa^R, 22Rv1-Daro^R and 22Rv1-Enz^R. Unless otherwise specified, the standard culture media for these SAT-resistant cell lines included 10 μM of their respective SAT. For the proteasome inhibitor study, the inhibitors MG132 and Epoxomicin are used. The E3 ligase inhibitors Heclin, Nutlin 3a, Thalidomide, and VH298 are used. Cell lines obtained from ATCC are confirmed by checking their morphology using optical microscopy, establishing baselines for cell proliferation, verifying species of origin using isoenzymology, and characterizing the cell's DNA fingerprint using short tandem repeat (STR) profiling. Mycoplasma contamination is also assessed using a PCR based detection system.
Selected compounds may be tested in the human prostate cancer cell line, 22Rv1-Enz^R, as described in Geun Taek Lee et al., Molecular Cancer Therapeutics, 20:490-9 (2021). These procedures are similar to that described in Experimental Example 1, above, except that the assay conditions are a 6-day culture with cell media changed every 24 hours.

Row | SMILES | IC50 [µM]
1 | O=C(COc1c(-c2csc(N3CCOCC3)n2)ccc(F)c1F)NCCCCCCCCCCC(=O)N1CCN(c2cc3c(cc2F)C(=O)N(C2CCC(=O)NC2=O)C3=O)CC1 (stereo not drawn) [Example 3, 2-(2,3-difluoro-6-(2-morpholinothiazol-4-yl)phenoxy)-N-(11-(4-(2-(2,6-dioxopiperidin-3-yl)-6-fluoro-1,3-dioxoisoindolin-5-yl)piperazin-1-yl)-11-oxoundecyl)acetamide] | < 10
2 | O=C(COc1c(-c2csc(N3CCOCC3)n2)ccc(F)c1F)NCCCCCCC(=O)N1CCN(c2cc3c(cc2F)C(=O)N(C2CCC(=O)NC2=O)C3=O)CC1 (stereo not drawn) [Example 2, 2-(2,3-difluoro-6-(2-morpholinothiazol-4-yl)phenoxy)-N-(7-(4-(2-(2,6-dioxopiperidin-3-yl)-6-fluoro-1,3-dioxoisoindolin-5-yl)piperazin-1-yl)-7-oxoheptyl)acetamide] | < 10
3 | O=C(COc1c(-c2csc(N3CCOCC3)n2)ccc(F)c1F)NCCCCC(=O)N1CCN(c2cc3c(cc2F)C(=O)N(C2CCC(=O)NC2=O)C3=O)CC1 (stereo not drawn) [Example 1, 2-(2,3-difluoro-6-(2-morpholinothiazol-4-yl)phenoxy)-N-(5-(4-(2-(2,6-dioxopiperidin-3-yl)-6-fluoro-1,3-dioxoisoindolin-5-yl)piperazin-1-yl)-5-oxopentyl)acetamide] | < 10
4 | O=C(COc1c(-c2csc(N3CCOCC3)n2)ccc(F)c1F)NCCCCCCCCCCNc1cc2c(cc1F)C(=O)N(C1CCC(=O)NC1=O)C2=O (stereo not drawn) [Example 25, 2-(2,3-difluoro-6-(2-morpholinothiazol-4-yl)phenoxy)-N-(10-((2-(2,6-dioxopiperidin-3-yl)-6-fluoro-1,3-dioxoisoindolin-5-yl)amino)decyl)acetamide] | < 10
5 | O=C1CCC(N2C(=O)c3cc(F)c(N4CCN(CC5CCN(C(=O)COc6c(-c7csc(N8CCOCC8)n7)ccc(F)c6F)CC5)CC4)cc3C2=O)C(=O)N1 (stereo not drawn) [Example 20, 5-(4-((1-(2-(2,3-difluoro-6-(2-morpholinothiazol-4-yl)phenoxy)acetyl)piperidin-4-yl)methyl)piperazin-1-yl)-2-(2,6-dioxopiperidin-3-yl)-6-fluoroisoindoline-1,3-dione] | < 10
6 | O=C1CCC(N2C(=O)c3cc(F)c(NCCCCOCCOCCOCCOc4c(-c5csc(N6CCOCC6)n5)ccc(F)c4F)cc3C2=O)C(=O)N1 (stereo not drawn) [Example 32, 5-((4-(2-(2-(2-(2,3-difluoro-6-(2-morpholinothiazol-4-yl)phenoxy)ethoxy)ethoxy)ethoxy)butyl)amino)-2-(2,6-dioxopiperidin-3-yl)-6-fluoroisoindoline-1,3-dione] | < 10
